Laboratory results reported in patent US12528790B2, “Amide derivative having antiviral activity” (Shionogi & Co., Ltd., priority 2020, dated 2026).

These compounds were tested on RSV A2 strain (assay: In vitro CPE (CytoPathic Effect) inhibition effect evaluation test, RSV type A). Settings: human respiratory syncytial virus, HEp-2.
Assay type: cell-based
Procedure, shortened: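 HEp-2 cells (2.4×10^5 cells/mL, 2% FBS E-MEM) were infected with RSV alongside 3-fold compound dilutions and incubated at 37 °C, 4 days for A2 and 5 days for B Wash/18537. Viable cells quantified by CellTiter-Glo 2.0 luminescence; EC50 by nonlinear regression as 50% CPE inhibition.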

| Structure (SMILES) | EC50 |
| --- | --- |
| Cc1ccc2c(c1)C1(CCN(CC(F)(F)F)CC1)CN2c1ncc(C(=O)NC2(C(=O)O)C3CC4CC(C3)CC2C4)c(C(F)(F)F)n1 (centres unmarked) [Compound I-136] | < 10 nM |
| NC(=O)C1(NC(=O)c2cnc(N3CC4(CCNCC4)c4cc(OCCC5CCOCC5)ccc43)nc2C(F)(F)F)C2CC3CC(C2)CC1C3 (centres unmarked) [Compound I-171] | 10 to 100 nM |
| Cc1ccc2c(c1)C1(CCN(C3COC3)CC1)CN2c1ncc(C(=O)NC2(C(N)=O)C3CC4CC(C3)CC2C4)c(C(F)(F)F)n1 (centres unmarked) [Compound I-181] | 10 to 100 nM |

Same assay, conditions: human respiratory syncytial virus; inhibitory effect against RSV type A (RSV A2 strain), HEp-2 cells, CPE inhibition; read-out: EC50

| Structure (SMILES) | EC50 |
| --- | --- |
| O=C(NC1(C(=O)O)C2CC3CC(C2)CC1C3)c1cnc(N2CCc3cc(OCCC4CCOCC4)cnc32)cc1C(F)(F)F (centres unmarked) [Compound I-126] | < 10 nM |
| Cn1nc(-c2ccc(C(=O)NC3(C(=O)O)C4CC5CC(C4)CC3C5)c(C(F)(F)F)n2)c2ccc(OCCC3CCOCC3)cc21 (centres unmarked) [Compound I-127] | < 10 nM |
| COCCn1cc(-c2ncc(C(=O)NC3(C(=O)O)C4CC5CC(C4)CC3C5)c(C(F)(F)F)n2)c2ccc(OCCC3CCOCC3)cc21 (centres unmarked) [Compound I-130] | < 10 nM |
| O=C(NC1(C(=O)O)C2CC3CC(C2)CC1C3)c1cnc(-c2cn(C3CCOCC3)c3cc(OCCC4CCOCC4)ccc23)nc1C(F)(F)F (centres unmarked) [Compound I-131] | < 10 nM |
| Cc1ccc2c(c1)C1(CCN(C(=O)OCc3ccccc3)CC1)CN2c1ncc(C(=O)NC2(C(=O)O)C3CC4CC(C3)CC2C4)c(C(F)(F)F)n1 (centres unmarked) [Compound I-132] | 10 to 100 nM |
| CCc1ccc2c(c1)C1(CCOCC1)CN2c1ncc(C(=O)NC2(C(=O)O)C3CC4CC(C3)CC2C4)c(C(F)(F)F)n1 (centres unmarked) [Compound I-133] | < 10 nM |
| Cc1ccc2c(c1)C1(CCNCC1)CN2c1ncc(C(=O)NC2(C(=O)O)C3CC4CC(C3)CC2C4)c(C(F)(F)F)n1 (centres unmarked) [Compound I-134] | < 10 nM |
| CCNC(=O)N1CCC2(CC1)CN(c1ncc(C(=O)NC3(C(=O)O)C4CC5CC(C4)CC3C5)c(C(F)(F)F)n1)c1ccc(C)cc12 (centres unmarked) [Compound I-138] | < 10 nM |
| O=C(NC1(C(=O)O)C2CC3CC(C2)CC1C3)c1cnc(-n2c3ccccc3c3cc(OCCC4CCOCC4)ccc32)nc1C(F)(F)F (centres unmarked) [Compound I-141] | < 10 nM |
| O=C(NC1(C(=O)O)C2CC3CC(C2)CC1C3)c1ccc(-c2cn(C(=O)OC3CCCCC3)c3cc(OC4CCN(c5ncccn5)CC4)ccc23)nc1C(F)(F)F (centres unmarked) [Compound I-150] | < 10 nM |
| O=C(NC1(C(=O)O)C2CC3CC(C2)CC1C3)c1ccc(-c2cn(CC3CC3)c3cc(OC4CCN(c5ncccn5)CC4)ccc23)nc1C(F)(F)F (centres unmarked) [Compound I-153] | < 10 nM |
| O=C(NC1(C(=O)O)C2CC3CC(C2)CC1C3)c1ccc(-c2cn(C3CCC3)c3cc(OC4CCN(c5ncccn5)CC4)ccc23)nc1C(F)(F)F (centres unmarked) [Compound I-154] | < 10 nM |
| NC(=O)c1cc(C(=O)NC2(C(=O)O)C3CC4CC(C3)CC2C4)c(C(F)(F)F)nc1N1CCc2cc(OCCC3CCOCC3)ccc21 (centres unmarked) [Compound I-156] | 100 to 5000 nM |
| O=C(NC1(C(=O)O)C2CC3CC(C2)CC1C3)c1cnc(N2CCc3cc(OCCC4CCOCC4)ccc32)nc1C(F)F (centres unmarked) [Compound I-157] | < 10 nM |
| CC(F)(F)c1nc(N2CCc3cc(OCCC4CCOCC4)ccc32)ncc1C(=O)NC1(C(=O)O)C2CC3CC(C2)CC1C3 (centres unmarked) [Compound I-161] | < 10 nM |
| O=C(N[C@@]1(C(=O)O)[C@@H]2C[C@@H]3C[C@H]1C[C@@](F)(C3)C2)c1cnc(N2CCc3cc(OCCC4CCOCC4)ccc32)nc1C(F)(F)F [Compound I-163] | < 10 nM |

| Structure (SMILES) | EC50 |
| --- | --- |
| NCCc1nc(N2CCc3cc(OCCC4CCOCC4)ccc32)nc(C(F)(F)F)c1C(=O)NC1(C(=O)O)C2CC3CC(C2)CC1C3 (centres unmarked) [Compound I-167] | 100 to 5000 nM |
| Cc1ccc2c(c1)C1(CCNCC1)CN2c1ncc(C(=O)NC2(C(N)=O)C3CC4CC(C3)CC2C4)c(C(F)(F)F)n1 (centres unmarked) [Compound I-172] | 100 to 5000 nM |
| CCC(F)(F)c1nc(N2CCc3cc(OCCC4CCOCC4)ccc32)ncc1C(=O)NC1(C(=O)O)C2CC3CC(C2)CC1C3 (centres unmarked) [Compound I-178] | 10 to 100 nM |
| CC(C)(F)c1nc(N2CCc3cc(OCCC4CCOCC4)ccc32)ncc1C(=O)NC1(C(=O)O)C2CC3CC(C2)CC1C3 (centres unmarked) [Compound I-179] | < 10 nM |
| O=C(NC1(C(=O)O)C2CC3CC(C2)CC1C3)c1cnc(N2CCc3cc(OCCC4CCOCC4)ccc32)nc1C(F)(F)C(F)(F)F (centres unmarked) [Compound I-180] | < 10 nM |
| N#C[C@H]1CC[C@H](n2cc(-c3ccc(C(=O)NC4(C(=O)O)C5CC6CC(C5)CC4C6)c(C(F)(F)F)n3)c3ccc(OC4CCN(c5ncccn5)CC4)cc32)CC1 (some centres unmarked) [Compound I-185] | < 10 nM |
| N#C[C@H]1CC[C@@H](n2cc(-c3ccc(C(=O)NC4(C(=O)O)C5CC6CC(C5)CC4C6)c(C(F)(F)F)n3)c3ccc(OC4CCN(c5ncccn5)CC4)cc32)CC1 (some centres unmarked) [Compound I-186] | < 10 nM |
| COc1ccc2c(c1)C1(CCOCC1)CN2c1nc(CCCO)c(C(=O)NC2(C(=O)O)C3CC4CC(C3)CC2C4)c(C(F)(F)F)n1 (centres unmarked) [Compound I-187] | 10 to 100 nM |
| O=C(NC1(C(=O)O)C2CC3CC(C2)CC1C3)c1ccc(-c2cn([C@H]3CC[C@@H](OCc4ccccc4)CC3)c3cc(OC4CCN(c5ncccn5)CC4)ccc23)nc1C(F)(F)F (some centres unmarked) [Compound I-188] | < 10 nM |
| O=C(NC1(C(=O)O)C2CC3CC(C2)CC1C3)c1ccc(-c2cn([C@H]3CC[C@@H](O)CC3)c3cc(OC4CCN(c5ncccn5)CC4)ccc23)nc1C(F)(F)F (some centres unmarked) [Compound I-194] | < 10 nM |
| O=C(NC1(C(=O)O)C2CC3CC(C2)CC1C3)c1ccc(-c2cn([C@H]3CC[C@H](O)CC3)c3cc(OC4CCN(c5ncccn5)CC4)ccc23)nc1C(F)(F)F (some centres unmarked) [Compound I-195] | < 10 nM |
| O=C(NC1(C(=O)O)C2CC3CC(C2)CC1C3)c1ccc(-c2cn(-c3cncnc3)c3cc(OC4CCN(c5ncccn5)CC4)ccc23)nc1C(F)(F)F (centres unmarked) [Compound I-196] | < 10 nM |
| O=C(NC1(C(=O)O)C2CC3CC(C2)CC1C3)c1ccc(-c2cn(-c3ccncn3)c3cc(OC4CCN(c5ncccn5)CC4)ccc23)nc1C(F)(F)F (centres unmarked) [Compound I-197] | < 10 nM |
| O=C(NC1(C(=O)O)C2CC3CC(C2)CC1C3)c1ccc(-c2cn(-c3cnccn3)c3cc(OC4CCN(c5ncccn5)CC4)ccc23)nc1C(F)(F)F (centres unmarked) [Compound I-198] | < 10 nM |
| O=C(NC1(C(=O)O)C2CC3CC(C2)CC1C3)c1ccc(-c2cn(CCO)c3cc(OC4CCN(c5ncccn5)CC4)ccc23)nc1C(F)(F)F (centres unmarked) [Compound I-200] | < 10 nM |

Now from value to compound:

| EC50 | Structure (SMILES) |
| --- | --- |
| < 10 nM | O=C(NC1(C(=O)O)C2CC3CC(C2)CC1C3)c1cnc(N2CC3(CCOCC3)c3cc(C4=CCCC4)ccc32)nc1C(F)(F)F (centres unmarked) [Compound I-128] |
| < 10 nM | O=C(NC1(C(=O)O)C2CC3CC(C2)CC1C3)c1cnc(N2CC3(CCOCC3)c3cc(C4CCCC4)ccc32)nc1C(F)(F)F (centres unmarked) [Compound I-129] |
| < 10 nM | Cc1ccc2c(c1)C1(CCN(c3ncccn3)CC1)CN2c1ncc(C(=O)NC2(C(=O)O)C3CC4CC(C3)CC2C4)c(C(F)(F)F)n1 (centres unmarked) [Compound I-139] |
| 10 to 100 nM | CC(C)(C)OC(=O)N1CCC(NC(=O)c2cnc(N3CC4(CCOCC4)c4cc(OC5CCN(c6ncccn6)CC5)ccc43)nc2C(F)(F)F)(C(=O)O)CC1 [Compound I-140] |
| < 10 nM | O=C(NC1(C(=O)O)C2CC3CC(C2)CC1C3)c1cnc(N2CC3(CCOCC3)c3cc(OC4CCC(n5cccn5)CC4)ccc32)nc1C(F)(F)F (centres unmarked) [Compound I-143] |
| 100 to 5000 nM | O=C(NC1(C(=O)O)CCNCC1)c1cnc(N2CC3(CCOCC3)c3cc(OC4CCN(c5ncccn5)CC4)ccc32)nc1C(F)(F)F [Compound I-144] |
| 10 to 100 nM | COC(=O)N1CCC(NC(=O)c2cnc(N3CC4(CCOCC4)c4cc(OC5CCN(c6ncccn6)CC5)ccc43)nc2C(F)(F)F)(C(=O)O)CC1 [Compound I-145] |
| < 10 nM | O=C(NC1(C(=O)O)C2CC3CC(C2)CC1C3)c1ccc(-c2cn(CC(=O)N3CCOCC3)c3cc(OC4CCN(c5ncccn5)CC4)ccc23)nc1C(F)(F)F (centres unmarked) [Compound I-149] |
| < 10 nM | O=C(N[C@@]1(C(=O)O)[C@@H]2C[C@@H]3C[C@H]1C[C@@](F)(C3)C2)c1cnc(N2CC3(CCOCC3)c3cc(OC4CCN(c5ncccn5)CC4)ccc32)nc1C(F)(F)F [Compound I-164] |
| < 10 nM | NC(=O)[C@@]1(NC(=O)c2cnc(N3CC4(CCOCC4)c4cc(OC5CCN(c6ncccn6)CC5)ccc43)nc2C(F)(F)F)[C@@H]2CC3C[C@H]1C[C@@](F)(C3)C2 [Compound I-166] |
| < 10 nM | CN(C)CCc1nc(N2CC3(CCOCC3)c3cc(OC4CCN(c5ncccn5)CC4)ccc32)nc(C(F)(F)F)c1C(=O)NC1(C(=O)O)C2CC3CC(C2)CC1C3 (centres unmarked) [Compound I-168] |
| < 10 nM | NC(=O)C1(NC(=O)c2ccc(N3CC4(CCOCC4)c4cc(OC5CCN(c6ncccn6)CC5)ccc43)nc2C(F)(F)F)C2CC3CC(C2)CC1C3 (centres unmarked) [Compound I-169] |
| < 10 nM | NC(=O)C1(NC(=O)c2cnc(N3CC4(CCOCC4)c4cc(OCCN5CCOCC5)ccc43)nc2C(F)(F)F)C2CC3CC(C2)CC1C3 (centres unmarked) [Compound I-170] |
| 10 to 100 nM | CNC(=O)C1(NC(=O)c2cnc(N3CC4(CCOCC4)c4cc(OC5CCN(c6ncccn6)CC5)ccc43)nc2C(F)(F)F)C2CC3CC(C2)CC1C3 (centres unmarked) [Compound I-173] |
| < 10 nM | CN(C)C(=O)C1(NC(=O)c2cnc(N3CC4(CCOCC4)c4cc(OC5CCN(c6ncccn6)CC5)ccc43)nc2C(F)(F)F)C2CC3CC(C2)CC1C3 (centres unmarked) [Compound I-174] |
| < 10 nM | O=C(NC1(C(=O)O)C2CC3CC(C2)CC1C3)c1cnc(N2CC3(CCOCC3)c3cc(O[C@H]4CC[C@@H](n5cccn5)CC4)ccc32)nc1C(F)(F)F (some centres unmarked) [Compound I-192] |
| 10 to 100 nM | O=C(NC1(C(=O)O)C2CC3CC(C2)CC1C3)c1cnc(N2CC3(CCOCC3)c3cc(O)ccc32)nc1C(F)(F)F (centres unmarked) [Compound I-201] |
| < 10 nM | O=C(NC1(C(=O)O)C2CC3CC(C2)CC1C3)c1cnc(N2CC3(CCOCC3)c3cc(OC4CCN(c5ncccn5)CC4)ccc32)nc1C(F)(F)CO (centres unmarked) [Compound I-205] |
| 10 to 100 nM | Cn1ccnc1N1CCC(Oc2ccc3c(c2)CCN3c2ncc(C(=O)NC3(C(=O)O)CCCCC3)c(C(F)(F)F)n2)CC1 [Compound I-207] |
